The record followed here is ChEMBL document CHEMBL1148863, “Discovering new inhibitors of bacterial glucosamine-6P synthase (GlmS) by docking simulations” (Bioorg Med Chem Lett, 2007).

Usually inhibition stands for the relative decrease from the control value, in per cent. The IC50 is the midpoint of a concentration-inhibition curve. Read a low IC50 as greater potency in that assay.

Experiment [1] in a line: Inhibition of bacterial glucosamine-6-phosphate synthase at 100 uM by colorimetric morgan-elson assay.
The nature of experiment [2]: Inhibition of bacterial glucosamine-6-phosphate synthase by colorimetric morgan-elson assay.

In experiment [1], `O=C(C1=C(O)C(=O)N(Cc2cccnc2)C1c1cccc(Oc2ccccc2)c1)c1ccco1` (stereo not drawn) gave an inhibition of 20%. For `O=C(O)C[C@@H](NS(=O)(=O)c1ccccc1)C(=O)O`, in experiment [1], the inhibition was found to be 0%.

In experiment [2], `CCOC(=O)c1sc(N2C(=O)C(O)=C(C(=O)c3ccc(F)cc3)C2c2cccc(Br)c2)nc1C` (stereo not drawn) returned an IC50 of 70 µM. In experiment [1], this compound registered an inhibition of 70%.

As for `COc1ccc(-c2sc(C(=O)O)cc2CC(=O)O)cc1`, the inhibition in experiment [1] was 0%. Consider `COc1ccccc1C1Oc2ccccc2C2=C1C(c1ccccc1OC)n1nc(C)nc1N2` (stereo not drawn), for which, in experiment [2], the 50% inhibitory concentration (IC50) is 70 µM. In addition, the inhibition in experiment [1] worked out at 70%.

`O=S(=O)(NC(NS(=O)(=O)c1ccccc1)c1ccc(Br)cc1)c1ccccc1` registered an inhibition in experiment [1] of 0%. `N[C@@H](CO)[C@@H](O)[C@H](O)[C@H](O)COP(=O)(O)O` returned an IC50 in experiment [2] of 56 µM. In experiment [1], this compound had an inhibition of 85%.

In experiment [2], `CCOC(=O)c1sc(N2C(=O)C(O)=C(C(=O)c3ccc(F)cc3)C2c2ccc(OC)cc2)nc1C` (stereo not drawn) showed an IC50 of 70 µM. Moreover, the inhibition in experiment [1] was determined as 70%. In experiment [1], `O=C(O)Cc1csc(NC(=O)CSc2ccccn2)n1` returned an inhibition of 0%. As to `Nc1nc[nH]n1` [AMITROLE], in experiment [2], the IC50 amounted to 100 µM.

In turn, `COC(=O)c1sc(N2C(=O)C(O)=C(C(=O)c3ccccc3)C2c2ccc(C)cc2)nc1C` (stereo not drawn) had an inhibition in experiment [1] of 0%. As for `COc1cc2ccnc3c2c(c1OC)NC=C3` [AAPTAMINE], 120 µM corresponded to half-maximal inhibition in experiment [2] (IC50). `COC(=O)c1sc(N2C(=O)C(O)=C(C(=O)c3ccc(Cl)cc3)C2c2ccccc2F)nc1C` (stereo not drawn) came in with an inhibition in experiment [1] of 0%. Compound `O=C(O)CC(Sc1ccc(C(=O)O)cc1)C(=O)O` (stereo not drawn) showed an inhibition in experiment [1] of 0%.
